Measurements taken from patent US20080026076A1 (priority 2003, published 2008).
Values joined by “and” are separate entries in the source; they are usually repeats but may differ in a detail not shown here. Identical values can stand only once. “Also recorded” adds a separate entry of the source. Marks after values point to notes of the source that are not given here.

What was measured:
[1] = system: rats with abdominal aortic constriction (AAC) or sham operated; test: Blood pressure in caudal and carotid arteries of conscious rats, abdominal aortic constriction pressure overload model; assay type: in vivo, rat; details: quercetin 1.5 g/kg chow, mean ± SEM
Excerpt: In this procedure the abdominal aorta is constricted to increase the afterload on the heart and produce pressure overload. […] Rats consumed this diet for 7 days. On the 8th day, 5 rats were surgically modeled for pressure overload by constricting the abdominal aorta to a diameter of 0.63 mm with a Weck hemoclip. The other 5 rats were sham operated (anesthetized and the aorta exposed, but not constricted). […] Another group of 10 rats were placed on a standard diet with no supplement and treated in an identical fashion with 5 surgically modeled for pressure overload and 5 sham operated. […] Two weeks after surgery post-sacrifice morphometric measurements are obtained by measuring total heart weight, left ventricle weight, and calculating heart:body weight and left ventricle:body weight ratios to assess cardiac mass and cardiac hypertrophy. […] An identical experimental procedure as described in Example I is used with n=10 rats per group (S, AAC, SQ, AAC-Q) for a total of 40 rats. […] Rats subjected to this protocol have very high carotid blood pressure. Rats are anesthetized, a catheter is placed in the caudal and carotid arteries, rats are allowed to regain consciousness for 60 minutes and blood pressures are measured.

[2] = system: prehypertensive and stage 1 hypertensive human subjects; test: Randomized, placebo-controlled, double-blind crossover trial: blood pressure; assay type: in vivo; details: for Diastolic blood pressure, Endpoint / MAP, Endpoint / Systolic blood pressure, Endpoint: end of 4-week quercetin phase, 730 mg/day, mean ± SEM; for quercetin induced-lowering of systolic blood pressure: change from baseline
Excerpt: Systemic markers of oxidant load also were examined as secondary outcomes to determine if reductions in blood pressure were associated with lower indices of oxidative stress. This study was approved by the University of Utah Human Use Review Committee, University of Utah Institutional Review Board, and written informed consent was obtained from each participant. Recruitment efforts in the greater Salt Lake City area targeted males and females with prehypertension (120-139 mmHg systolic/80-89 mmHg diastolic) and Stage 1 hypertension (140-159 mmHg systolic/90-99 mmHg diastolic) as defined by The 7th Report Of The Joint National Committee On Prevention, Detection, Evaluation, And Treatment Of High Blood Pressure (32). […] The secondary hypothesis was that quercetin-induced reductions in blood pressure would be associated with lower indices of systemic oxidant stress. […] A 14-day washout period separated the two phases. Subjects were randomly assigned to begin either the quercetin or the placebo phase first. […] Clinic visits were conducted on overnight-fasted subjects in the morning hours at the beginning and end of the placebo and quercetin supplementation phases. Subjects were instructed not to exercise prior to their appointments. […] Blood pressure was a primary outcome variable and was obtained at each clinic visit by a trained observer using an Omron random zero automatic blood pressure analyzer as previously described (35). Each participant sat quietly for 5-10 minutes, after which their arm was placed at heart level and blood pressure and pulse rate were determined at least three times in 3-5 minute intervals. If blood pressure varied among these determinations by more than 10 mmHg, three additional trials were performed. The accumulated measurements then were averaged to determine overall systolic and diastolic pressure and pulse rate for each subject.

[3] = system: rats with abdominal aortic constriction (AAC) or sham operated; test: Post-sacrifice morphometric measurements (body, heart and organ weights, heart rate) to assess cardiac hypertrophy; assay type: in vivo, rat; details: for Heart wt.: quercetin diet, mean ± SEM
Excerpt: In this procedure the abdominal aorta is constricted to increase the afterload on the heart and produce pressure overload. […] Rats consumed this diet for 7 days.
On the 8th day, 5 rats were surgically modeled for pressure overload by constricting the abdominal aorta to a diameter of 0.63 mm with a Weck hemoclip. The other 5 rats were sham operated (anesthetized and the aorta exposed, but not constricted). […] Another group of 10 rats were placed on a standard diet with no supplement and treated in an identical fashion with 5 surgically modeled for pressure overload and 5 sham operated. […] Two weeks after surgery post-sacrifice morphometric measurements are obtained by measuring total heart weight, left ventricle weight, and calculating heart:body weight and left ventricle:body weight ratios to assess cardiac mass and cardiac hypertrophy.
Post-sacrifice morphometric measurements are obtained by measuring body weight, total heart weight, calculating heart:body weight ratios and heart rate to assess cardiac mass and cardiac hypertrophy.

ERK1/2 = ERK1/2 signaling status in left ventricle, immunoblot; assay type: in vivo, rat; details: AAC rats fed supplemental quercetin
Description: (§1) Determination of ERK1/2 and Akt signaling status (FIGS. 4A & 4B). All extraction procedures were performed at 4° C. […] After homogenization, the samples were sonicated twice on ice and centrifuged at 11,000×g for 10 min. at 4° C. Supernatants were recovered and stored at −80° C. for subsequent immunoblotting. Protein concentration of whole heart cell lysate was determined using a Bio-Rad Protein assay (Bio-Rad, Hercules, Calif.) with bovine serum albumin (BSA) as a standard.

[4] = Plasma quercetin in trial subjects (HPLC); assay type: in vivo; details: human, oral
Description: Blood samples were collected after blood pressure was measured. Blood was collected by antecubital venipuncture from fasting subjects into sodium heparin tubes (Becton Dickinson, N.J., USA). Collected blood was immediately stored on ice and centrifuged within 10 minutes at 4° C. for 15 minutes at 2500 g as previously described (36).
Supernatants then were extracted with ethyl acetate and injected into an HPLC Discovery C18 column. The mobile phase was 1% acetic acid (solvent A) and 95% acetonitrile in 1% phosphoric acid (solvent B). The gradient elution was solvent B from 10 to 85% in 20 minutes, holding for 5 minutes before returning back to 10% for conditioning. A visible detector with 365 nm was used.

[5] = system: NE precontracted aortic segments; test: Vascular reactivity in segments of aorta, wire-type myograph; assay type: in vivo, rat
Description: Animals are anesthetized, the heart and aorta excised, and vascular reactivity is assessed in segments of aorta using a wire-type myograph.

normotensive individuals = details: 1000 mg/day of quercetin for one month (Conquer et al.); cited from earlier work
Akt = Akt signaling status in left ventricle, immunoblot; assay type: in vivo, rat; details: AAC rats fed supplemental quercetin
Description: as §1

PKC = details: cytosol and membrane fraction of cells from thyroid, brain, liver, fibroblasts; μM concentrations of quercetin; cited from earlier work
[6] = sham-operated Q-fed animals (n=10)

In the case of O=c1c(O)c(-c2ccc(O)c(O)c2)oc2cc(O)cc(O)c12 [quercetin, 3,5,7,3′,4′-pentahydroxyflavone], the “Caudal MAP (mean arterial pressure)” value ([1]; AAC + Q: AAC rats) is reported as 108.0 ± 7.1 mmHg, the “Diastolic Caudal blood pressure” value ([1]; AAC + Q: AAC rats) is reported as 104.7 ± 5.5^b mmHg and the “Gradient MAP” value ([1]; AAC + Q: AAC rats) is reported as 18.3 ± 4.4^b mmHg. The “Systolic Caudal blood pressure” value ([1]; AAC + Q: AAC rats) was 118.3 ± 6.4 mmHg, the “Systolic Carotid blood pressure” value ([1]; AAC + Q: AAC rats, untreated AAC 201.4 ± 11.4) was 158.8±10.3 mmHg and 158.8 ± 10.3^b mmHg and the “Carotid MAP (mean arterial pressure)” value ([1]; Sham + Q: sham operated rats) was 113.5 ± 3.8^a mmHg. For the same compound, the “Caudal MAP (mean arterial pressure)” value ([1]; Sham + Q: sham operated rats) was 100.6 ± 3.0 mmHg, the “Diastolic Carotid blood pressure” value ([1]; Sham + Q: sham operated rats) was 106.2 ± 4.8^a mmHg and the “Diastolic Caudal blood pressure” value ([1]; Sham + Q: sham operated rats) was 93.6 ± 3.2^a mmHg. For the same compound, the “Diastolic Gradient (carotid vs caudal)” value ([1]; Sham + Q: sham operated rats) was 7.0 ± 2.9^a mmHg, the “Gradient MAP” value ([1]; Sham + Q: sham operated rats) was 7.2 ± 1.9^ab mmHg and the “Systolic Carotid blood pressure” value ([1]; Sham + Q: sham operated rats) was 128.2 ± 1.9^a mmHg. The “Systolic Caudal blood pressure” value ([1]; Sham + Q: sham operated rats) was 114.7 ± 3.2 mmHg, the “Systolic Gradient (carotid vs caudal)” value ([1]; Sham + Q: sham operated rats) was 7.3 ± 1.9^a mmHg and the “Diastolic blood pressure, Endpoint” value ([2]; prehypertensive (n=22), baseline 85 ± 1) was 83 ± 2 mmHg. For the same compound, the “MAP, Endpoint” value ([2]; prehypertensive (n=22), baseline 101 ± 1) was 98 ± 2 mmHg, the “Systolic blood pressure, Endpoint” value ([2]; prehypertensive (n=22), baseline 133 ± 2) was 128 ± 3 mmHg and the “quercetin induced-lowering of systolic blood pressure” value ([2]; prehypertensive) was −5.2 mmHg. For the same compound, the “Diastolic blood pressure, Endpoint” value ([2]; stage 1 hypertensive (n=22), baseline 97 ± 1) was 92 ± 2 mmHg, the “MAP, Endpoint” value ([2]; stage 1 hypertensive (n=22), baseline 113 ± 1) was 108 ± 2 mmHg and the “Systolic blood pressure, Endpoint” value ([2]; stage 1 hypertensive (n=22), baseline 145 ± 2) was 138 ± 2 mmHg. The “quercetin induced-lowering of systolic blood pressure” value ([2]; stage 1 hypertensive) was −7.2 mmHg, the “carryover antihypertensive effect: mean arterial pressure at baseline of quercetin phase vs placebo phase” value ([2]; subjects that received quercetin treatment first) was “No differences were found” and the Heart wt. ([3]; AAC + Q (n = 9)) was 1.18 ± 0.03^b g. For the same compound, the cardiac hypertrophy ([3]; AAC-Q rats compared with AAC and sham rats, two weeks after surgery) was “lower level of cardiac hypertrophy; also recorded: levels of hypertrophy in between S and AAC rats”, the Heart wt. ([3]; Sham + Q (n = 10)) was 1.01 ± 0.03^a g and the “activation of ERK1/2” value (ERK1/2) was “reduced”. For the same compound, the concentration at 1 week after end of supplementation [4] was 190 ± 9 ng/mL, the concentration at 4 weeks ([4]; 730 mg/day for 4 weeks, fasted, 235±35 after placebo) was 480 ± 64 ng/mL and the “maximal ACh-evoked relaxation” value ([5]; AAC-Q rats (n=9), untreated AAC 30±3) was 44±3%. For the same compound, the SNP-evoked relaxation ([5]; AAC-Q rats (n=9), untreated AAC 56±3) was 71±4%, the SNP-evoked relaxation [5, 6] was 71±5% and the “maximal ACh-evoked relaxation” value [5, 6] was 38±4%. The blood pressure (normotensive individuals) was “no changes in blood pressure”, the plasma quercetin concentrations (normotensive individuals) was 427 ± 89 ng/mL and the “activation of Akt” value (Akt) was “prevented”. For the same compound, the PKC activity (PKC) was “inhibition of PKC activity”.
